Data as given in PMC5855685 (International Journal of Molecular Sciences, 2018).
≈ marks a conversion by molar mass, not a printed value. Read-outs that look alike come from different tables or passages of the source.

Assays:
[1] = system: E. coli, Bacillus sp., Staphylococcus sp., Streptococcus pyogenes; experiment: Antibacterial activity, MIC as summarised in the abstract; format: cell-based; details: summary over tested bacteria (abstract)
Protocol: (§1) The antimicrobial activity of studied compounds was tested against Escherichia coli, Bacillus subtilis, Staphylococcus epidermidis, Streptococcus pyogenes and antifungal activities against Candida sp. The microorganisms used in the experiment were obtained from the American Type Culture Collection-ATCC. Antimicrobial activity was measured as a minimal inhibitory concentration (MIC) with […] Hinton Agar (MHA). Serial two-fold dilutions of chemicals, ranging from 5000, 2500, 1250, 625 to 312, μg/mL were prepared. After the inoculation of microorganisms on MHA plates with certain tested chemical concentrations, the plates were incubated at 37 °C for bacteria and at 30 °C for Candida sp. for 24 and 48 h, respectively. Plates containing sterile water were used as controls. Minimum three repetitions were run for each assay. Ampicillin and kanamycin were used as a reference antibiotics.

Hepatitis B virus = system: Hepatitis B virus; design: method as in PMID 19463857; details: cited from earlier work
[2] = system: Stenotrophomonas maltophilia, Bacillus careus, Enterococcus faecalis, Bacillus subtilis, Streptococcus pneumoniae; design: method as in PMID 23509719, PMID 21483731, PMID 22417510; details: range over listed bacteria; cited from earlier work
[3] = system: Staphylococcus Epidermidis (Gram+); experiment: Antimicrobial activity, MIC on Müeller Hinton Agar; format: cell-based; details: for MIC: read-out: MIC (minimal inhibitory concentration)
Protocol: as §1

[4] = system: Streptococcus Pyogenes (Gram+); experiment: Antimicrobial activity, MIC on Müeller Hinton Agar; format: cell-based; details: for MIC: read-out: MIC (minimal inhibitory concentration)
Protocol: as §1

Candida sp. = experiment: Antifungal activity, MIC on Müeller Hinton Agar; format: cell-based; details: for MIC: Candida, read-out: MIC (minimal inhibitory concentration)
Protocol: as §1

Bacillus sp. (Gram+) = experiment: Antimicrobial activity, MIC on Müeller Hinton Agar; format: cell-based, Bacillus subtilis; details: for MIC: read-out: MIC (minimal inhibitory concentration)
Protocol: as §1

[5] = system: multi-drug resistant Staphylococcus aureus; design: method as in PMID 26528244; details: via inhibition of the activity of sortase A; cited from earlier work
E. coli (Gram−) = experiment: Antimicrobial activity, MIC on Müeller Hinton Agar; format: cell-based, Escherichia coli; details: for MIC: Escherichia coli, read-out: MIC (minimal inhibitory concentration)
Protocol: as §1

[6] = DPPH radical scavenging assay; details: methanolic solution, 40 μM DPPH, 1 h, 23 °C, 516 nm
Protocol: Particular volumes of chlorogenic acid and chlorogenate solutions were added into the test tubes and diluted with methanol to obtain a series of solutions at the concentrations 10–0.1 μM (final volume 1 mL). Then, 2 mL of DPPH was added to each tube, vortexed and incubated in the darkness for 1 h at 23 °C. […] The absorbance of the mixture was measured at 516 nm against methanol as the blank using Agilent Carry 5000 spectrophotometer. The control sample—2 mL of DPPH solution and 1 mL of methanol. […] Then, the concentration of the tested substances was plotted against the % inhibition and the IC50 values were read from the scavenging curves. […] The IC50 parameter was also obtained for butylated hydroxyanisol (BHA), butylated hydroxytoluene (BHT) and L-ascorbic acid and compared with those ones calculated for studied compounds.

[7] = FRAP (ferric reducing antioxidant power) assay; details: Fe2+ equivalents
Protocol: Ferric reducing antioxidant activity was determined in FRAP assay. In order to prepare the FRAP reagent the following reagents: 0.3 M acetate buffer (pH 3.6), 10 mM TPTZ (in 40 mM HCl) and 20 mM FeCl3·6H2O (in water) were mixed in a volumetric ratio 10:1:1 directly before analyses. Then, the FRAP reagent (3 mL) was mixed with the tested substance (0.4 mL; final concentrations C = 2.5 and 5.0 μM). The absorbance was measured at 594 nm against blank (3 mL of FRAP and 0.4 mL of methanol) using an Agilent Carry 5000 spectrophotometer (CA, USA). Antioxidant activity was expressed as Fe^2+ equivalents [μM] using the calibration curve prepared over the range of 1000–20 μM concentration of FeSO4.

[8] = Pro-oxidant activity as rate of oxidation of trolox (H2O2 / horseradish peroxide); details: 100 μM trolox, 50 μM H2O2, pH 7, 25 °C, 272 nm
Protocol: Chlorogenic acid and chlorogenates were also tested for their pro-oxidative effect on trolox oxidation. The radicals of chlorogenic acid and chlorogenates are produced in their reaction with H2O2 catalysed by horse radish peroxide. Then the phenoxyl radicals react with trolox which undergoes oxidation to trolox radicals and then trolox quinones. Whereas the phenoxyl radical are transformed to phenolic compounds. The maximum absorption for trolox quinone is 272 nm. This is a general procedure to study the pro-oxidant activity of phenolic compounds [54].
The pro-oxidant activity of the tested compounds were measured as the rate of oxidation of trolox according to the procedure described by Zeraik et al.. 100 μM trolox, 50 μM H2O2, 0.01 μM horseradish peroxide in phosphate buffer (pH = 7) and tested substances with a concentration from 0.05–0.35 μM were incubated at 25 °C. The measurement were conducted at 272 nm using an Agilent Carry 5000 spectrophotometer.

| SMILES | MIC (minimal inhibitory concentration) (Candida sp.; MHA plates, 30 °C, 48 h) | EC50 [6] | FRAP Values C Fe2+ ([7]; Ccompound 5 µM) | MIC (minimal inhibitory concentration) ([3]; MHA plates, 37 °C, 24 h) | MIC (minimal inhibitory concentration) ([4]; MHA plates, 37 °C, 24 h) | MIC (minimal inhibitory concentration) (Bacillus sp. (Gram+); MHA plates, 37 °C, 24 h) | FRAP Values C Fe2+ ([7]; Ccompound 2.5 µM) | MIC (minimal inhibitory concentration) (E. coli (Gram−); MHA plates, 37 °C, 24 h) | other results |
| --- | --- | --- | --- | --- | --- | --- | --- | --- | --- |
| O=C(/C=C/c1ccc(O)c(O)c1)O[C@@H]1C[C@](O)(C(=O)O)C[C@@H](O)[C@H]1O [5-CQA, 5-O-caffeoylquinic acid, reference compound] | > 14.11 mM | – | – | – | – | – | – | – | MIC [1]: 7.06 mM (≈ 2500 µg/mL); IC50 against Hepatitis B virus (Hepatitis B virus): 0.4 mg/L (≈ 1.13 µM); MIC [2]: 8 to 64 mg/L; MIC ([3]; MHA plates, 37 °C, 24 h): > 7.06 mM; MIC ([3]; value in brackets): > 2500 mg/L; MIC ([4]; MHA plates, 37 °C, 24 h): > 7.06 mM; MIC ([4]; value in brackets): > 2500 mg/L; MIC (Candida sp.; 48 h, MHA plates, 30 °C, 48 h): 14.1 mM; MIC (Candida sp.; value in brackets): > 5000 mg/L; MIC (Bacillus sp. (Gram+); MHA plates, 37 °C, 24 h): > 7.06 mM; MIC (Bacillus sp. (Gram+); value in brackets): > 2500 mg/L; IC50 [5]: 33.86 ± 5.55 mg/L (≈ 95.6 µM); MIC (E. coli (Gram−); MHA plates, 37 °C, 24 h): 7.06 mM; MIC (E. coli (Gram−); value in brackets): 2500 mg/L |
| CC1(C)S[C@@H]2[C@H](NC(=O)[C@H](N)c3ccccc3)C(=O)N2[C@H]1C(=O)O [Ampicillin, reference compound] | – | – | – | – | – | – | – | – | MIC ([3]; MHA plates, 37 °C, 24 h): 0.57 mM; MIC ([4]; MHA plates, 37 °C, 24 h): 0.57 mM; MIC (Candida sp.; 48 h, MHA plates, 30 °C, 48 h): 0.57 mM; MIC (Bacillus sp. (Gram+); MHA plates, 37 °C, 24 h): 0.57 mM; MIC (E. coli (Gram−); MHA plates, 37 °C, 24 h): 0.43 mM |
| Cc1cc(C(C)(C)C)c(O)c(C(C)(C)C)c1 [BHT, butylated hydroxytoluene, reference compound] | – | 52.8 ± 2.83 µM | 69.66 ± 5.54 µM | – | – | – | – | – | – |
| O=C(/C=C/c1ccc(O)c(O)c1)O[C@@H]1C[C@](O)(C(=O)[O-])C[C@@H](O)[C@H]1O.[Cs+] [Cs 5-CQA, caesium chlorogenate] | ˃9.58 mM | 5.89 ± 1.57 µM | – | ˃4.79 mM | ˃4.79 mM | ˃4.79 mM | 80.47 ± 5.68 µM | 4.79 mM | – |
| O=C(/C=C/c1ccc(O)c(O)c1)O[C@@H]1C[C@](O)(C(=O)[O-])C[C@@H](O)[C@H]1O.[K+] [K 5-CQA, potassium chlorogenate] | 5.96 mM | 5.32 ± 0.49 µM | 132.00 ± 6.07 µM | 2.98 mM | ˃5.96 mM | 5.96 mM | 99.89 ± 7.05 µM | 5.96 mM | time after which the oxidation of trolox finished ([8]; compound 0.25 μM): 40 min; time after which the oxidation of trolox finished ([8]; compound 0.35 μM): 20 min |
| NC[C@H]1O[C@H](O[C@H]2[C@H](O)[C@@H](O[C@H]3O[C@H](CO)[C@@H](O)[C@H](N)[C@H]3O)[C@H](N)C[C@@H]2N)[C@H](O)[C@@H](O)[C@@H]1O [Kanamycin, reference compound] | 0.41 mM (≈ 199 µg/mL) | – | – | 0.21 mM (≈ 102 µg/mL) | 0.21 mM (≈ 102 µg/mL) | 0.21 mM (≈ 102 µg/mL) | – | 0.21 mM (≈ 102 µg/mL) | – |
| O=C1O[C@H]([C@@H](O)CO)C(O)=C1O [L-ascorbic acid, reference compound] | – | 10.9 ± 0.53 µM | 81.70 ± 4.23 µM | – | – | – | – | – | – |
| O=C(/C=C/c1ccc(O)c(O)c1)O[C@@H]1C[C@](O)(C(=O)[O-])C[C@@H](O)[C@H]1O.[Li+] [Li 5-CQA, lithium chlorogenate] | ˃12.91 mM | 5.28 ± 0.375 µM | – | ˃6.46 mM | ˃6.46 mM | ˃6.46 mM | 78.93 ± 4.23 µM | 6.46 mM | time after which the oxidation of trolox finished ([8]; compound 0.35 μM): 20 min |
| O=C(/C=C/c1ccc(O)c(O)c1)O[C@@H]1C[C@](O)(C(=O)[O-])C[C@@H](O)[C@H]1O.[Na+] [Na 5-CQA, sodium chlorogenate] | ˃12.40 mM | 4.5 ± 0.36 µM | 141.13 ± 5.78 µM | ˃6.20 mM | ˃6.20 mM | ˃6.20 mM | 103.08 ± 2.79 µM | 6.20 mM | time after which the oxidation of trolox finished ([8]; compound 0.35 μM): 20 min |
| O=C(/C=C/c1ccc(O)c(O)c1)O[C@@H]1C[C@](O)(C(=O)[O-])C[C@@H](O)[C@H]1O.[Rb+] [Rb 5-CQA, rubidium chlorogenate] | 5.27 mM | 5.4 ± 0.68 µM | – | 5.27 mM | 2.63 mM | 5.27 mM | 86.70 ± 2.86 µM | 2.63 mM | time after which the oxidation of trolox finished ([8]; compound 0.25 μM): 40 min |
| Cc1c(C)c2c(c(C)c1O)CCC(C)(C(=O)O)O2 (stereo not shown) [Trolox, reference compound] | – | 8.25 ± 0.75 µM | 70.85 ± 3.57 µM | – | – | – | – | – | – |
